How the values were obtained:
[1] = biological target: T1, human pGC-A (Homo sapiens, UniProt P16066); assay: Positive allosteric modulation of pGC-A-mediated cGMP production, HTRF competition assay (Example 1); type: cell-based; details: free base; for EC50: HEK 293 human pGC-A expressing cells, presence of EC30 ANP (1.3 pM), average of 3 independent experiments, read-out: pEC50 cGMP response (converted)
T1 construct: expressed in transfected cells; host or cells: HEK293
T1 sequence (P16066 33-1061): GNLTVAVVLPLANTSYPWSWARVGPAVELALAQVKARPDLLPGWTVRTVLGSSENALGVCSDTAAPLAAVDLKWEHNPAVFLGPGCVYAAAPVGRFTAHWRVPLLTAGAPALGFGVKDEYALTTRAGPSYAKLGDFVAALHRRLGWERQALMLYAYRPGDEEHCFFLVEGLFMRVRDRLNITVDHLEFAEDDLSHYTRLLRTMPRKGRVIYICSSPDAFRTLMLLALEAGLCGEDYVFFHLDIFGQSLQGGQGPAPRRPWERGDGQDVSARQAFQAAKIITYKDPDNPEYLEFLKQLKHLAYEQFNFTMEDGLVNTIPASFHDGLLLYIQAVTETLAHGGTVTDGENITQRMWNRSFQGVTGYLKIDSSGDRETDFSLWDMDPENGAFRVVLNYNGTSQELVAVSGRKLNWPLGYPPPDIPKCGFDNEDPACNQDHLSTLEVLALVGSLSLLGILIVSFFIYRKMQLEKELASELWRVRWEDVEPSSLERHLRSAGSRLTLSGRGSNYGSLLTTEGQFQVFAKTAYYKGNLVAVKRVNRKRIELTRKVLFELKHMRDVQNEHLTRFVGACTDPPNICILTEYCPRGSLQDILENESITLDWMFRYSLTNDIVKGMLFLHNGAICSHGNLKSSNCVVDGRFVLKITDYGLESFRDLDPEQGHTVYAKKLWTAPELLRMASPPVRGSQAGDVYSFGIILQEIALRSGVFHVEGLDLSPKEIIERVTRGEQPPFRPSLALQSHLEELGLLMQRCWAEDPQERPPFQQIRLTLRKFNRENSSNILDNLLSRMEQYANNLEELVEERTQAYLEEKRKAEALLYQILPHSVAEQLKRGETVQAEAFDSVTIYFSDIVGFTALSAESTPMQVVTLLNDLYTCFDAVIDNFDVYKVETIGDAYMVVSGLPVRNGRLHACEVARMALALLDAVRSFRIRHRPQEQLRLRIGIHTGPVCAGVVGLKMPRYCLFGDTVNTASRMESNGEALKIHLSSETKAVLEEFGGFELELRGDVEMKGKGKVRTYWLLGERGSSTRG
T1 sequence (P01160 124-151 partner limits assumed): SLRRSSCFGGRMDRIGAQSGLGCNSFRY
Description: Test compounds at 10 mM DMSO stock concentration were added to 384 well assay plates using Tecan dispenser starting at 40 μM concentration and diluted 2-fold for 10-point concentration-response curves. Wells were backfilled with DMSO such that the final concentration of DMSO in all wells was maintained at 0.3% DMSO. Positive allosteric modulation (presence of EC30 concentration of ANP at 1.3 pM) of pGC-A-mediated activation of cGMP production was measured in human pGC-A overexpressing HEK293 cells by homogenous time-resolved florescence (HTRF) competition assay using cGMP CisBio detection kit (Cat #: 62GM2PEC). Enantiomerically pure(S)-N-(4,6-difluorobenzo[d]thiazol-2-yl)-1-(2-(dimethylamino)ethyl) piperidine-3-carboxamide and (R)-N-(4,6-difluorobenzo[d]thiazol-2-yl)-1-(2-(dimethylamino)ethyl) piperidine-3-carboxamide were individually synthesized from enantiomerically pure starting materials (R- and S-nipecotic acid).

[2] = system: spontaneously hypertensive rats; assay: In vivo actions in spontaneously hypertensive rats (cGMP, blood pressure, renal function); design: species or system rat; details: acetate salt, 10 mg/kg single IV bolus, SHR; for plasma cGMP: 15 minutes after administration; for diastolic blood pressure: 60 minutes post-bolus; for diastolic blood pressure / urinary sodium excretion / urinary volume / systolic blood pressure: vs vehicle (and Compound 2); for urinary sodium excretion / urinary volume: post-bolus; for systolic blood pressure: throughout 60 minutes post bolus
Description: The cGMP generating, blood pressure lowering and renal enhancing actions of a single intravenous (IV) bolus dose of Compound 3, Compound 1 or Compound 2 acetate salt (n=4/small molecule form: 10 mg/kg) or Vehicle (n=5: 15% DMSO/60% PEG300/25% PBS) in spontaneously hypertensive rats (SHRs; male: 12 weeks old) were investigated. Studies were performed in accordance with the Animal Welfare Act and with approval of the Mayo Clinic Institutional Animal Care and Use Committee.
SHRs were administered Inactin (100 mg/kg: IP) to induce anesthesia and then maintained with additional Inactin (100 mg/kg: IP), as required. Once adequate anesthesia was achieved, the anesthetized SHRs were placed on a heating table set at 37° C. to maintain body temperature for the entire study and then were subjected to vessel and bladder cannulation. A polyethylene (PE)-50 tube catheter was placed into the jugular vein for saline, Compound 3, Compound 1, Compound 2 or vehicle IV administration. The carotid artery was cannulated with a PE-50 tube catheter for blood pressure monitoring (Sonometrics, London, Ontario, Canada) and blood sampling/collection. The bladder was accessed and cannulated with a PE-90 tube catheter for passive urine collection. After completion of the procedural set up, a 45-minute equilibration period was performed that included continuous IV saline infusion, a 30-minute baseline (pre-bolus) urine collection and a single baseline blood sample at the end of the 30-minute baseline urine collection. […] BP was monitored and recorded, beginning prior to IV bolus administration (0-minute post-bolus) and then at 15, 30, 45 and 60 minutes post-bolus. At the end of the 60-minute clearance, the anesthetized rats were euthanized by exsanguination and all blood and urine samples were stored at −80° C. until assayed. Plasma and urinary cGMP levels were measured using a cGMP ELISA kit (Enzo Life Sciences, Farmingdale, NY) as instructed by the manufacturer. Urinary sodium concentrations were determined with an electrolyte analyzer (Diamond Diagnostics Inc., Holliston, MA).

[3] = system: Primary Human cardiomyocytes; assay: cGMP levels (ELISA) in human cardiomyocytes; type: cell-based; details: acetate salt, ANP (10^-10 M); for cGMP generation in HCMs in the presence of ANP: 1 or 10 μM, vs vehicle
Description: Primary Human cardiomyocytes (HCMs: Catalog No. 6200, Lot No. 6288, PromoCell) were maintained and subcultured according to the manufacturer's protocols. Passage 5 was used in the study. Treatment buffer, Compound 3, Compound 1 and Compound 2 acetate salt, ANP, and vehicle were prepared as described above. Briefly, 5×10^5 of cells/well were grown in 6-well plates until 80 to 90% confluency and were then pretreated with vehicle or Compound 3, Compound 1 or Compound 2 at doses of 1 or 10 μM for 5 min at 37° C., then cells were treated with ANP (10^-10 M) for an additional 10 min at 37° C. Afterward, all cells were washed with PBS once and lysed with 0.1 M HCl at room temperature, and intracellular cGMP levels were measured in the lysate using a commercial cGMP ELISA kit (Enzo Life Sciences) with the acetylation method as instructed by the manufacturer.

EC50 [1] [µM]	fold more potent than the R-enantiomer (compound 2) ([1]; presence of ANP) [fold]	SMILES	plasma cGMP [2]	urinary cGMP [2]	cGMP generation in HCMs in the presence of ANP [3]	diastolic blood pressure [2]	urinary sodium excretion [2]	urinary volume [2]	systolic blood pressure [2]	cGMP generation in HCMs, Compound 1 compared with Compound 2 ([3]; both doses)
1.26	–	CN(C)CCN1CCC[C@@H](C(=O)Nc2nc3c(F)cc(F)cc3s2)C1 [Compound 2, (R)-N-(4,6-difluorobenzo[d]thiazol-2-yl)-1-(2-(dimethylamino)ethyl) piperidine-3-carboxamide]	increase	did not increase	increased cGMP levels in a dose dependent manner	–	–	–	–	–
–	–	CN(C)CCN1CCCC(C(=O)Nc2nc3c(F)cc(F)cc3s2)C1 (racemic) [Compound 3, N-(4,6-difluorobenzo[d]thiazol-2-yl)-1-(2-(dimethylamino)ethyl) piperidine-3-carboxamide]	increase	increase	–	greater reduction	greater increase	greater increase	greater reduction	–
0.398	3.5	CN(C)CCN1CCC[C@H](C(=O)Nc2nc3c(F)cc(F)cc3s2)C1 [Compound 1, (S)-N-(4,6-difluorobenzo[d]thiazol-2-yl)-1-(2-(dimethylamino)ethyl) piperidine-3-carboxamide]	increase	increased	increased cGMP levels in a dose dependent manner	more effective	more effective	more effective	more effective	more potent

Reference: patent US20250026746A1, “ENHANCERS OF PARTICULATE GUANYLYL CYCLASE RECEPTOR A” (Mayo Foundation for Medical Education and Research, priority 2021, published 2025)
